Experimental findings from patent publication US20250222065A1, “CYCLIC POLYPEPTIDE FOR THE TREATMENT OF PHA TYPE 1B” (priority 2015, published 2025) are described below.

Assay [1] deals with WT αβγ-hENaC, WT δβγ-hENaC or mutant hENaC. The assay is described as follows: Amiloride block of whole-cell sodium current in transfected HEK-293 cells. It is filed as cell-based, human. Particulars: amiloride 10 μM, HEK-293 whole-cell sodium current. As for the experimental part: Concentration-response curves were plotted, and EC50 values and Hill coefficients were determined using Microcal Origin 7.0. […] Finally, amiloride was added to enable estimation of the peptide-induced increase in amiloride-sensitive Na+ current. […] Amiloride was used at 10 μM for WT αβγ-hENaC, WT δβγ-hENaC or mutant hENaC; these concentrations yielded greater than 95% hENaC inhibition. Only cells with clear amiloride response were included in data analysis.

The next assay has as its system αβγV543fs-hENaC. Kind of assay: Whole cell patch clamp, HEK-293 cells expressing PHA type IB frameshift mutant αβγV543fs-hENaC. Particulars: HEK-293, peptide concentration 220 nM, mean ± SE, n = 5; no peptide: loss-of-function; Table 2. It counts as cell-based, human. As for the experimental part:
The ENaC-activating properties of cyclic peptides are tested electrophysiologically in vitro using whole cell and […] patch clamp techniques Hazemi et al, 2010; Tzotzos et al, 2013; Shabbir et al, 2013). A whole call patch clamp assay is used to measure the induced amiloride-sensitive Na+ current, calculate concentration-response curves and thus estimate the potency measured as effective concentration at half maximum response (EC50), for cyclic peptides.
In addition, mutant delta ENaC subunits were also constructed by site-directed mutagenesis, containing homologous mutations to those observed in conserved positions in the other three ENaC subunits.
Point mutations were introduced into cDNA encoding alpha, beta, gamma and delta ENaC using a commercially available site-directed mutagenesis kit (QuikChange Lightning Site-Directed Mutagenesis Kit; Agilent Technologies). […]
(§1) Whole cell currents were recorded as previously described (Shabbir et al, 2013).
(§2) Data represent the mean ±S.E. unless otherwise stated; experiments were performed on three to seven batches of independently transfected cells in the HEK-293 heterologous expression system. Statistical significance between different groups was determined using an unpaired, two-tailed Student's t test using GraphPad Prism version 3.02 (GraphPad Software, San Diego). […]
(In patch-clamp work, channel activity is measured electrically.)

Assay [2] concerns PHA type IB mutant loss-of-function hENaC. Kind of assay: Whole cell patch clamp, HEK-293 cells expressing PHA type IB mutant hENaCs (overall conclusions). It counts as cell-based, human. Particulars: whole cell electrophysiological assay, versus absence of peptide. The method, then: In addition, mutant delta ENaC subunits were also constructed by site-directed mutagenesis, containing homologous mutations to those observed in conserved positions in the other three ENaC subunits. […]
as §1
Concentration-response curves were plotted, and EC50 values and Hill coefficients were determined using Microcal Origin 7.0. […]
After GOhm-seal (GΩ-seal) formation, and an equilibration period of 5 min, sodium current was recorded at Eh from —80 to +80 mV in 20 mV increments held for 1 min at each Eh.
as §2

Another assay deals with αβG37Sγ-hENaC (human, UniProt P37088 1-669; P51168 1-640; P51170 1-649). Kind of assay: cell-based or functional assay.
The target in another assay is αQ101Kβγ-hENaC (human, UniProt P37088 1-669; P51168 1-640; P51170 1-649). The assay is described as follows: cell-based or functional assay.
For assay [3], the target named is αβγV543fs-hENaC (human), P37088. Kind of assay: cell-based or functional assay.

`N=C(N)NC(=O)c1nc(Cl)c(N)nc1N` [Amiloride, amiloride]: the hENaC inhibition entry in assay [1] is “greater than 95%”.
On to “Cyclo(4-aminobutanoic acid-GQRETPEGAEAKPWYD) (not fully specified; cyclized via 4-aminobutanoic acid) [AP318]”, for which the “Inward current measured (amiloride-sensitive current)” value with αβγV543fs-hENaC is on record as 177.7 ± 6.5 pA. In addition, the “Amiloride-sensitive sodium ion current through PHA-1B mutants in the presence of peptide” value in assay [2] is on record as “significantly increased”.

B1: AP318, Cyclo(4-aminobutanoic acid-GQRETPEGAEAKPWYD) (peptide)
peptide: GQRETPEGAEAKPWYD
modifications: N-terminal 4-aminobutanoic acid (GABA); cyclic: amide bond between the amino group of N-terminal 4-aminobutanoic acid and the side chain carboxyl group of the C-terminal aspartic acid
Take B1: the “Inward amiloride-sensitive current, whole cell patch clamp, HEK-293, peptide concentration 220 nM” value with αβG37Sγ-hENaC worked out at 192 pA; with αQ101Kβγ-hENaC, 177 pA.

B2: AP318, Cyclo(4-aminobutanoic acid-…) (peptide)
peptide: GQRETPEGAEAKPWYD
modifications: here or on the partner: N-terminal 4-aminobutanoic acid (GABA); cyclic: amide bond between the amino group of N-terminal 4-aminobutanoic acid and the side chain carboxyl group of the C-terminal aspartic acid
For B2, in assay [3], the Inward amiloride-sensitive current, whole cell patch clamp, HEK-293, peptide concentration 220 nM was 178 pA.
